The results in this text go back to patent US20100075907A1, “NEUROMEDIN U RECEPTOR AGONISTS AND USES THEREOF” (priority 2006, published 2010).

As a reminder, the IC50 is the concentration needed to halve the response being measured.

Non-standard residues stand in square brackets, D forms with d. Residues, ends and D or L forms follow the SMILES beside them. *: point of attachment. X1 = CC(C)CCC[C@@H](C)[C@H]1CC[C@H]2[C@@H]3CC=C4C[C@@H](OC(=O)C*)CC[C@]4(C)[C@H]3CC[C@]12C; Succinimide(1-Et,3-yl) = CCN1C(=O)CC(*)C1=O

The target in one assay is T1, mouse NMUR1-ATG (Mus musculus, UniProt O55040).
T1 sequence (O55040 1-428): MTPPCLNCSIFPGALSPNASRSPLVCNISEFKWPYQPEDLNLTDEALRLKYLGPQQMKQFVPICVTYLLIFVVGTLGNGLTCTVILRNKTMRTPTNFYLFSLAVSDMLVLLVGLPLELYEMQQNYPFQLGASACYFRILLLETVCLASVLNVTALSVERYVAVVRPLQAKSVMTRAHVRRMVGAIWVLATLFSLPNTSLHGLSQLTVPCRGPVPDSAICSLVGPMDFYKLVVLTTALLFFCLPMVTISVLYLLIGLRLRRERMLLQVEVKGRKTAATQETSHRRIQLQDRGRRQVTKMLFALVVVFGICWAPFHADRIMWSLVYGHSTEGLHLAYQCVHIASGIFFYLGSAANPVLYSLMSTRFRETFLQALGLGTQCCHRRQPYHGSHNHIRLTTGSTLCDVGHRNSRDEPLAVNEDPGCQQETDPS
In words: FLIPR calcium mobilization assay, mouse NMUR1-ATG. Details: expressed in transfected cells; host or cells: FLP-In CHO or HEK-293 FLP-In cells (pcDNA5). Conditions: for IC50: functional data. The class given is cell-based. An excerpt:
Human, mouse or rat cDNAs encoding NMUR1 or NMUR2 (as described in Howard et al. Nature 406: 70-74 (2000) were subcloned in pcDNA5 (Invitrogen) and transfected into FLP-In CHO cells and HEK-293 FLP-In cells purchased from Invitrogen (Carlsbad, Calif.) using lipofectamine (Invitrogen). The Flp-In system allows integration and expression of a particular gene of interest at a specific genomic location utilizing the Flp recombinase from yeast. The transfected cells were selected by growth in medium containing 200 μg/mL hygromycin (Invitrogen). Populations were frozen at early passage numbers, and these stocks were used for further studies. Stable clones that expressed the mRNAs were identified functionally by FLIPR as well as by RT-PCR. […] Two different rodent NMUR1 cell lines were thus generated: one with the codon as predicted from the genomic databases and another cell line with an engineered methionine (ATG) as the start codon. Additionally, stable cell lines expressing the human receptors were generated in HEK-293/aeq17 cells which stably express the aequorin gene under the CMV promoter. The human NMUR2 cDNA was cloned into pcDNA3.1 and human NMUR1 was subcloned into pIRES-puro (Clontech, Mountain View, Calif.), after transfection cells were selected in media containing G418 and either hygromycin (NMUR2) or puromycin (NMUR1).
The NMU receptors signal primarily through Gαq/11 proteins; therefore calcium mobilization assays can be utilized for functional activity.
Stable cell lines expressing human and or rodent NMUR1 or human NMUR2 receptors were plated at a density of 12,000 cells per well overnight on poly-lysine coated 384-well black-walled plates. The following day, the media was removed from the plates and the cells were subsequently loaded with Fluo-3 (Molecular Probes), a calcium sensitive dye, diluted in FLIPR buffer (1× Hank's buffered saline containing 20 mM HEPES, 0.1% BSA, 2.5 mM probenecid (Sigma) and 1.6 mM TR40). All reagents are from Invitrogen unless otherwise noted. Peptide stocks were resuspended in DMSO at a stock concentration of 2 mM and diluted in FLIPR buffer on the day of the experiment to a 4 μM working stock solution.
After a 90 minute incubation at room-temperature, cell plates were loaded onto a FLIPR (Molecular Devices) to monitor cellular fluorescence (excitation=488 nm; emission=540 nm) before and after compound/peptide addition. Eight to twelve point dose responses were tested on NMUR-expressing cell lines using FLIPR with 1 μM peptide as the highest dose. The response after peptide addition was taken as the maximum fluorescence units minus the fluorescence immediately prior to stimulation for each well. EC50 values were calculated using GraphPad Prism (San Diego, Calif.) software.
In vitro responses of Neuromedin U receptor agonists (NMU1 to NMU25) in the FLIPR assay for human (Table 3), mouse (Table 4) and rat (Table 5) NMUR1 and NMUR2. EC50s are reported in nM values. Percent activity refers to the maximum response at 1 μM compared to the hNMU-25 response at the same concentration. NT=not tested.
A general note: Calcium assays in cells follow changes in intracellular calcium, usually with a dye or a luminescent sensor.

The next assay has as its target hNMUR2 (Homo sapiens, UniProt Q9GZQ4). In words: 125I-hNMU-25 binding assay, human NMUR2 membranes. Conditions: for IC50: binding; for IC50 / % inhibition of NMU-25 binding: human R2. Also noted: expressed in transfected cells; host or cells: HEK-293 FLP-In cells (pcDNA5); HEK-293/aeq17 lines (pcDNA3.1) were also made; % inhibition of NMU-25 binding / % Activity: concentration or dose not given beside the values. The method, then:
Confluent cell monolayers expressing NMU receptors (the HEK cells described above) were harvested with phosphate buffered saline, collected by centrifugation, and resuspended in membrane buffer (50 mM TrisCl pH 7.4, 5 mM MgCl2, 1× Protease Inhibitor Cocktail, 10 μM phosphoramidon). After the cell pellet was homogenized, the solution was centrifuged at 18,000 rpm for 20 minutes at 4° C. The pellet was resuspended in membrane buffer to yield a final concentration of 0.5-5 μg/μL of membrane and stored at −80° C.
Experiments were performed in assay buffer (25 mM TrisCl, pH 7.4, 10 mM MgCl2, 2 mM EDTA, 1× Protease Inhibitor Cocktail, 100 μg/mL Bacitricin, 10 μM phosphoramidon) in 200 μL volumes in a 96-well format using 2-5 μg of membrane and 0.1 nM ^125I-hNMU-25 (about 12,000 cpm/well). For non-specific binding, 1 μM hNMU-25 was added. About 5 μL of peptides were added to measure antagonist activity, and the entire reaction was incubated at room temperature with shaking for 80 minutes. The reaction was terminated by rapid filtration through 0.3% poly-ethylenimine presoaked Millipore 96-well filter plates and washed with ice-cold buffer (5 mM TrisCl pH 7.4, 10 mM MgCl2, 2.5 mM EDTA, 0.04% Triton X-100). Plates were air-dried overnight at room temperature and recovered radioactivity was determined by standard scintillation counting. IC50 values were determined using GraphPad Prism software.
Concentration-response curves and radioligand-binding data were fitted using Prism (GraphPad Software). Results are summarized below in Tables 8 and 9.

[1] abbreviates: functional, mouse R1-ATG, relative to native hNMU responses.
Where [2] appears, read: maximum response at 1 μM compared to hNMU-25, mouse NMUR1-ATG.

hNMUR2, sequence (Q9GZQ4 whole entry): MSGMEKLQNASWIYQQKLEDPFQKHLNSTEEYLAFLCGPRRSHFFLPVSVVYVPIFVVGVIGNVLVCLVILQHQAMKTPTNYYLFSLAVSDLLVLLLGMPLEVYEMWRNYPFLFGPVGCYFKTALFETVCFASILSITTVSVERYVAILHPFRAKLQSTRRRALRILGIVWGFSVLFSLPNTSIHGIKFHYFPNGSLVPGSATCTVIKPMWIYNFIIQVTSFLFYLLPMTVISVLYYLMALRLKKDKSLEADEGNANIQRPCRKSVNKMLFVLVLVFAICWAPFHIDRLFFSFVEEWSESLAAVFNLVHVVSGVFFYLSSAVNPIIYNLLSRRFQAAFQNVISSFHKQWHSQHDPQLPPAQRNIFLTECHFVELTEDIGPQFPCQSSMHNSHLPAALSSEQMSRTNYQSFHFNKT

Regarding `CCN1C(=O)CC(SC[C@H](NC(C)=O)C(=O)N[C@@H](Cc2ccccc2)C(=O)N[C@@H](CCCNC(=N)N)C(=O)N[C@H](C(=O)N[C@@H](CC(=O)O)C(=O)N[C@@H](CCC(=O)O)C(=O)N[C@@H](CCC(=O)O)C(=O)N[C@@H](Cc2ccccc2)C(=O)N[C@@H](CCC(N)=O)C(=O)N[C@@H](CO)C(=O)N2CCC[C@H]2C(=O)N[C@@H](Cc2ccccc2)C(=O)N[C@@H](C)C(=O)N[C@@H](CO)C(=O)N[C@@H](CCC(N)=O)C(=O)N[C@@H](CO)C(=O)N[C@@H](CCCNC(=N)N)C(=O)NCC(=O)N[C@@H](Cc2ccc(O)cc2)C(=O)N[C@@H](Cc2ccccc2)C(=O)N[C@H](C)C(=O)N[C@@H](Cc2c[nH]c3ccccc23)C(=O)N[C@@H](CCCNC(=N)N)C(=O)N2CCC[C@H]2C(=O)N[C@@H](CCCNC(=N)N)C(=O)N[C@@H](CC(N)=O)C(N)=O)C(C)C)C1=O` (stereo partly shown) [NMU13] (Ac-C(Succinimide(1-Et,3-yl))FRVDEEFQSPFASQSRGYF[dA]WRPRN-NH2), the “% Activity” value at mouse NMUR1-ATG (setting [1]) amounted to 96%. For the same molecule, on mouse NMUR1-ATG (setting [2]), the “% Activity” value worked out at 98.6%. At hNMUR2, the IC50 was over 1000 nM and the “% inhibition of NMU-25 binding” value stood at 48%.

As for “H-FRVDEEFQSPFASQSRGYFLFRPRN-NH2 [hNMU-25, reference compound]”, the figures for the IC50 on mouse NMUR1-ATG (mouse R1-ATG) and at hNMUR2 were 0.9 nM and 0.056 nM, respectively. In addition, on hNMUR2 (Table 9, HEK-hR2, binding), the “% Activity” value is given as 100%.

`CC(C)C[C@@H](NC(=O)[C@H](Cc1ccccc1)NC(=O)[C@H](Cc1ccc(O)cc1)NC(=O)CNC(=O)[C@H](CCCNC(=N)N)NC(=O)[C@H](CO)NC(=O)[C@H](CCC(N)=O)NC(=O)[C@H](CO)NC(=O)[C@H](C)NC(=O)[C@H](Cc1ccccc1)NC(=O)[C@@H]1CCCN1C(=O)[C@H](CO)NC(=O)[C@H](CCC(N)=O)NC(=O)[C@H](Cc1ccccc1)NC(=O)[C@H](CCC(=O)O)NC(=O)[C@H](CCC(=O)O)NC(=O)[C@H](CC(=O)O)NC(=O)[C@@H](NC(=O)[C@H](CCCNC(=N)N)NC(=O)[C@@H](N)Cc1ccccc1)C(C)C)C(=O)N[C@@H](Cc1c[nH]c2ccccc12)C(=O)N[C@@H](CCCNC(=N)N)C(=O)N1CCC[C@H]1C(=O)N[C@@H](CCCNC(=N)N)C(=O)N[C@@H](CC(N)=O)C(N)=O` [Agonist H] (H-FRVDEEFQSPFASQSRGYF[dL]WRPRN-NH2; N-terminus assumed): the IC50 on mouse NMUR1-ATG (mouse R1-ATG) worked out at 25 nM; at hNMUR2, 782 nM. In addition, the “% Activity” value on mouse NMUR1-ATG (setting [1]) turned out to be 90%; at hNMUR2 (Table 8, HEK-hR2, binding), 7%. The “% inhibition of NMU-25 binding” value on hNMUR2 is listed as 7%.

On to `CC(=O)N[C@@H](CSCC(=O)O[C@H]1CC[C@@]2(C)C(=CC[C@H]3[C@@H]4CC[C@H]([C@H](C)CCCC(C)C)[C@@]4(C)CC[C@@H]32)C1)C(=O)NCC(=O)N[C@@H](Cc1ccc(O)cc1)C(=O)N[C@@H](Cc1ccccc1)C(=O)N[C@@H](CC(C)C)C(=O)N[C@@H](Cc1ccccc1)C(=O)N[C@@H](CCCNC(=N)N)C(=O)N1CCC[C@H]1C(=O)N[C@@H](CCCNC(=N)N)C(=O)N[C@@H](CC(N)=O)C(N)=O` [NMU11] (Ac-C(X1)GYFLFRPRN-NH2), for which the “% Activity” value on mouse NMUR1-ATG (setting [2]) came out at 81.3%.
